Experimental findings from ChEMBL document CHEMBL3046764, “Heterocyclic ortho-quinones, a novel type of Photosystem II inhibitors” (Biochim Biophys Acta, 2001) are described below.

Active and inactive are the calls of the source. The calls are words filed in the database; no cut-off is given here.

This assay addresses Photosystem II protein D1 (Chlamydomonas reinhardtii) (UniProt P07753). The assay is described as follows: Non-competitive displacement of [14C]atrazine from Chlamydomonas reinhardtii photosystem II protein D1 assessed as DCIP-reduction by double-reciprocal plot. (Displacement assays read how much labelled ligand stays bound in the presence of the test substance.)

On to `CCCCCCCC1=C(Br)c2nc3ccccn3c2C(=O)C1=O`, for which the result was Active.
